Tests used:
[1] = tested on: methane-producing bacteria; conditions: 80 mg/kg; paddy fields during rice cultivation; cited from earlier work
[2] = tested on: paddy field soil microorganisms; test: Test Example 3: comparative test of methane-production inhibition with existing inhibitor BES in flooded paddy field soil (headspace GC); format: cell-based; conditions: 0.5 mg/kg dry soil; for Methane-production amount (mg/L) 21 days after treatment: 21 days static incubation at 30° C., untreated plot 69.3; for Methane-production amount (mg/L) 28 days after treatment: 28 days static incubation at 30° C., untreated plot 119.2
Description: In a glass vial (21.5 mL volume) for headspace analysis, 4.0 g of paddy field soil (provisional specific gravity 1.18 g/cm^3) was weighed, and 8 mL of distilled water was added. In this flooded soil, a plot to which 20 μL of acetone solution containing 100 ppm of Compound I-1 was added (0.5 mg/kg dry soil (equivalent to 590 g/ha)) is provided as Example 10, a plot to which 20 μL of an aqueous solution containing 100 ppm of BES (a comparative compound) and acetone was added (0.5 mg/kg dry soil) is provided as Comparative Example 3, and an untreated plot to which 20 μL of acetone was added is provided as Comparative Example 4. After 100 μL of a culture solution of paddy field soil microorganisms was added to these glass vials, the vials were tightly sealed using septum and aluminum caps, and allowed to stand at 30° C. for static incubation. After 21 and 28 days of incubation treatment, 0.5 mL of gas was collected from a headspace in a glass vial sample using a gas tight syringe and analyzed for methane production by gas chromatography (GC). The comparative compound, BES (CAS No.: 4263-52-9; 2-Bromoethanesulfonate), is an existing methane-production inhibitor and a product manufactured by Tokyo Chemical Industry Co., Ltd.

dairy cattle = conditions: feed treated with from 40 to 80 mg/kg; cited from earlier work
[3] = tested on: paddy field soil microorganisms; test: Test Example 1: methane-production inhibition test by Compound I-1 in flooded paddy field soil (headspace GC); format: cell-based; conditions: for Methane-production amount (mg/L) 21 days after treatment: 21 days static incubation at 30° C., untreated plot 34.0; for Methane-production amount (mg/L) 28 days after treatment: 28 days static incubation at 30° C., untreated plot 38.9
Description: In a glass vial (21.5 mL volume) for headspace analysis, 4.0 g of paddy field soil (provisional specific gravity 1.18 g/cm^3) was weighed, and 8 mL of distilled water was added. In this flooded soil, a plot to which 40 μL of 10 ppm Compound I-1-containing acetone solution was added (0.1 mg/kg dry soil (equivalent to 118 g/ha)) was provided as Example 1, and a plot to which 20 μL of 100 ppm Compound I-1-containing acetone solution was added (0.5 mg/kg dry soil (equivalent to 590 g/ha)) and a plot to which 40 μL of 100 ppm Compound I-1-containing acetone solution was added (1 mg/kg dry soil (equivalent to 1180 g/ha)) were provided as Examples 2 and 3. As Comparative Example 1, an untreated plot to which 40 μL of acetone was added was provided. After 100 μL of a culture solution of paddy field soil microorganisms was added to these glass vials, the vials were tightly sealed using septum and aluminum caps, and allowed to stand at 30° C. for static incubation. After 21 and 28 days of incubation treatment, 0.5 mL of gas was collected from a headspace in a glass vial sample using a gas tight syringe and analyzed for methane production by gas chromatography (GC). The amount treatment (g) per 1 ha was converted according to the OECD Guideline Test No. 307 issued in 2002, based on the provisional specific gravity of the paddy field soil used.

[4] = tested on: paddy field soil microorganisms; test: Test Example 2: methane-production inhibition test by various methane-production inhibitors in flooded paddy field soil (headspace GC); format: cell-based; conditions: for Methane-production amount compared to untreated plot: 0.5 mg/kg dry soil treatment; for Methane-production amount (mg/L) 21 days after treatment / Methane-production amount (mg/L) 28 days after treatment: 0.5 mg/kg dry soil; for Methane-production amount (mg/L) 21 days after treatment: 21 days static incubation at 30° C., untreated plot 19.6; for Methane-production amount (mg/L) 28 days after treatment: 28 days static incubation at 30° C., untreated plot 44.3
Description: In a glass vial (21.5 mL volume) for headspace analysis, 4.0 g of paddy field soil (provisional specific gravity 1.18 g/cm^3) was weighed, and 8 mL of distilled water was added. In this flooded soil, plots to which 40 μL of acetone solution containing 50 ppm of the compounds listed in Table 2 below were added (0.5 mg/kg dry soil (equivalent to 590 g/ha)), respectively, were provided as Examples 4 to 9. As Comparative Example 2, an untreated plot to which 40 μL of acetone was added was provided. After 100 μL of a culture solution of paddy field soil microorganisms was added to these glass vials, the vials were tightly sealed using septum and aluminum caps, and allowed to stand at 30° C. for static incubation. After 21 and 28 days of incubation treatment, 0.5 mL of gas was collected from a headspace in a glass vial sample using a gas tight syringe and analyzed for methane production by gas chromatography (GC).

In the case of `O=S(=O)([O-])CCBr.[Na+]` [BES, 2-Bromoethanesulfonate, reference compound], the “Reduction of methane emissions compared to a control area” value [1] is listed as 49%, the “Methane-production amount compared to untreated plot” value [2] is listed as “reduced” and the “Methane-production amount (mg/L) 21 days after treatment” value [2] is listed as 32.9 mg/L. For the same molecule, the “Methane-production amount (mg/L) 28 days after treatment” value [2] was 80.5 mg/L.
In the case of `O=[N+]([O-])OCCCO` [Compound 3-NOP, 3-nitrooxypropanol], the “Reduction of methane emissions from dairy cattle” value (dairy cattle) is given as 30%.
For `O=C(Oc1ccc(OS(=O)(=O)CCl)cc1)c1ccccc1` [Compound I-1], the “Methane-production amount compared to untreated plot” value ([3]; 0.1 mg/kg dry soil (Example 1)) was “reduced”, the “Methane-production amount (mg/L) 21 days after treatment” value ([3]; 0.1 mg/kg dry soil) was 9.1 mg/L and the “Methane-production amount (mg/L) 28 days after treatment” value ([3]; 0.1 mg/kg dry soil) was 21.3 mg/L. For the same molecule, the “Methane-production reduction effect compared to untreated plot” value ([3]; 0.5 mg/kg dry soil and above (Examples 2 and 3)) was “higher reduction effect”, the “Methane-production amount (mg/L) 21 days after treatment” value ([3]; 0.5 mg/kg dry soil) was 2.8 mg/L and the “Methane-production amount (mg/L) 28 days after treatment” value ([3]; 0.5 mg/kg dry soil) was 3.7 mg/L. The “Methane-production amount (mg/L) 21 days after treatment” value ([3]; 1 mg/kg dry soil) was 2.5 mg/L, the “Methane-production amount (mg/L) 28 days after treatment” value ([3]; 1 mg/kg dry soil) was 3.1 mg/L and the “Methane-production amount compared to untreated plot” value [4] was “particularly high reduction effect”. For the same molecule, the “Methane-production amount (mg/L) 21 days after treatment” value [4] was 2.5 mg/L, the “Methane-production amount (mg/L) 28 days after treatment” value [4] was 3.8 mg/L and the “Methane reduction amount relative to the reduction amount due to the comparative compound” value [2] was “significantly greater”. For the same molecule, the “Methane-production amount compared to untreated plot” value [2] was “reduced”, the “Methane-production amount (mg/L) 21 days after treatment” value [2] was 13.4 mg/L and the “Methane-production amount (mg/L) 28 days after treatment” value [2] was 34.2 mg/L.
With `O=S(=O)(CCl)Oc1ccc(O)cc1` [Compound I-2] the “Methane-production amount compared to untreated plot” value [4] was “particularly high reduction effect”, the “Methane-production amount (mg/L) 21 days after treatment” value [4] was 2.5 mg/L and the “Methane-production amount (mg/L) 28 days after treatment” value [4] was 4.4 mg/L.
For `O=S(=O)(CCl)c1ccc(Br)cc1` [Compound I-3], the “Methane-production amount (mg/L) 21 days after treatment” value [4] was 5.3 mg/L and the “Methane-production amount (mg/L) 28 days after treatment” value [4] was 14.7 mg/L.
For `O=S(=O)(CCl)c1ccc(O)cc1` [Compound I-4], the “Methane-production amount (mg/L) 21 days after treatment” value [4] was 5.4 mg/L and the “Methane-production amount (mg/L) 28 days after treatment” value [4] was 16.7 mg/L.
In the case of `O=S(=O)(CO)c1ccc(Br)cc1` [Compound I-5], the “Methane-production amount (mg/L) 21 days after treatment” value [4] is reported as 15.7 mg/L and the “Methane-production amount (mg/L) 28 days after treatment” value [4] is reported as 24.3 mg/L.
In the case of `CS(=O)(=O)Oc1ccc(O)cc1` [Compound I-6], the “Methane-production amount (mg/L) 21 days after treatment” value [4] is reported as 16.7 mg/L and the “Methane-production amount (mg/L) 28 days after treatment” value [4] is reported as 28.3 mg/L.

From patent US11795145B2, “Methane-production inhibitor composition and method for inhibiting methane production” (KUMIAI CHEMICAL INDUSTRY CO., LTD., priority 2020, dated 2023)
